Test results reported in patent US11013687B1, “Preventive and therapeutic treatment for COVID 19 and any other disease caused by SARS CoV 2” (priority 2020, dated 2021).

Assays:
[1] = tested on: SARS-CoV-2; assay type: cell-based
[2] = used in much larger amounts as food additive and sweetener than for nasal delivery; cited from earlier work
[3] = cited from earlier work

For iota Carrageenan, the “Log reduction of TCID50/mL after 48 hs. (mean of three replicates)” value ([1]; 6 μg/mL iota carrageenan, Vero E6, treated pre- and post-infection, 48 h, vs virus only, LOD in next column = titre at limit of detection) is given as “significantly reducing viral titers”, the “concentration capable of inhibiting SARS CoV 2 in vitro” value ([1]; concentration of iota Carrageenan, alone or in combination with xylitol) is given as “not less than 6 μg/mL” and the safety for humans [2] is given as “safe for humans”. The “time iota Carrageenan stays in the nasal mucosa” value ([3]; clinical trials with a formulation containing xylometazoline and iota Carrageenan) was “about 4 hrs” and the residence time ([3]; nasal, estimation basis for dosing each 4 hours) was “approximately 4 hour”.
In the case of `OC[C@@H](O)[C@H](O)[C@@H](O)CO` [xylitol, Xylitol], the “capable of inhibiting SARS CoV 2 in vitro (in words)” value ([1]; xylitol alone) is given as “capable of inhibiting SARS CoV 2 in vitro” and the safety for humans [2] is given as “safe for humans”.
